The subject of data set [1] is cells derived from Ku70 knock-out mice. The data set is described as follows: Survival experiments with cells derived from Ku70 knock-out mice. Particulars: Ku70 knock-out mouse cells, FIG. 12. Type of data set: cell-based.
For data set [2], the system named is HeLa cells expressing antisense Ku80. The data set is described as follows: Cytotoxicity in stable HeLa cells expressing antisense Ku80 RNA (Tet-Off). Particulars: adriamycin 1 μg/ml; expression of Ku80 antisense RNA; FIG. 13. It is filed as cell-based, human.
In data set [3] the test system is cells derived from Ku80 knock-out mice. Description: Survival experiments with cells derived from Ku80 knock-out mice. Type of data set: cell-based. Particulars: Ku80 knock-out mouse cells, FIG. 12.
Data set [4] concerns HeLa cells expressing antisense Ku70. Description: Cytotoxicity in stable HeLa cells expressing antisense Ku70 RNA (Tet-Off). It is filed as cell-based, human. Particulars: adriamycin 1 μg/ml; expression of Ku70 antisense RNA; FIG. 13. As to the method: Effect of (A) radiation, and (B) adriamycin on different cell types. O=HeLa controls cells; ▪=HeLa cells expressing antisense Ku70; ▴=HeLa cell expressing antisense Ku80.
Stable HeLa cells, containing human Ku70 cDNA or human Ku80 cDNA, in the antisense orientation, under the regulation of the Tet-Off™ expression system (Clonetech), were established. Upon induction of the expression system these cells should produce antisense Ku70 or Ku80 RNA, respectively. Experiments were performed showing (FIG. 13) that expression of either Ku70 or Ku80 antisense RNA increased the cytotoxic effect adriamycin by 3-5 fold at 1 μg/ml and that expression of Ku70 antisense RNA increased the cytotoxic effect of γ-radiation approximately 5 fold (at 6 Gy).

The values below come from patent US6399298B1, “Ku70—related methods” (Sloan-Kettering Institute for Cancer Research, priority 1998, dated 2002).

With `COc1cccc2c1C(=O)c1c(O)c3c(c(O)c1C2=O)C[C@@](O)(C(=O)CO)C[C@@H]3O[C@H]1C[C@H](N)[C@H](O)[C@H](C)O1` [adriamycin], the “sensitivity of cells to the agent (survival)” value in data set [1] and in data set [3] was “very sensitive” in each case. For the same compound, the “increase of the cytotoxic effect of adriamycin” value in data set [2] and in data set [4] was 3-5 fold throughout.
As to bleomycin, the “sensitivity of cells to the agent (survival)” value in data set [1] and in data set [3] was “very sensitive” in each case.
